Results published in patent US20250154171A1, “RAS INHIBITORS” (Revolution Medicines, Inc., priority 2023, published 2025).
Read-outs that look alike come from different tables or passages of the source. One block for each compound: values may come before it.

Experiments:
[1] = ester bond, 18-membered ring, PyBOP/HOBt/DIEA
K-RasG12V (Capan-1) = assay: Potency assay: cellular pERK (AlphaLISA SureFire or In-Cell Western), Capan-1; format: cell-based; details: Homo sapiens; Capan-1 cells; 4 hours; in at least one of the assays (AlphaLISA or In-Cell Western); read-out: pERK IC50 with respect to K-RasG12V (Capan-1)
Excerpt: The purpose of this assay is to measure the ability of test compounds to inhibit K-Ras in cells. Activated K-Ras induces increased phosphorylation of ERK at Threonine 202 and Tyrosine 204 (PERK). This procedure measures a decrease in cellular pERK in response to test compounds. The procedure described below in Capan-1 cells is applicable to K-RasG12V.
Note: This protocol may be executed substituting other cell lines to characterize inhibitors of other RAS variants, including, for example, NCI-H358 (K-Ras G12C), AsPC-1 (K-Ras G12D), Capan-1 (K-Ras G12V), or NCI-H1355 (K-Ras G13C).
Cells are grown and maintained using media and procedures recommended by the ATCC. On the day prior to compound addition, cells are plated in 384-well cell culture plates (40 μl/well) and grown overnight in a 37° C., 5% CO2 incubator. Test compounds are prepared in 10, 3-fold dilutions in DMSO, with a high concentration of 10 mM. On the day of assay, 40 nL of test compound is added to each well of cell culture plate using an Echo550 liquid handler (LabCyte®). Concentrations of test compound are tested in duplicate. After compound addition, cells are incubated 4 hours at 37° C., 5% CO2. Following incubation, culture medium is removed, and cells are washed once with phosphate buffered saline.
In some experiments, cellular pERK level is determined using the AlphaLISA SureFire Ultra p-ERK1/2 Assay Kit (PerkinElmer). Cells are lysed in 25 μL lysis buffer, with shaking at 600 RPM at room temperature. Lysate (10 μL) is transferred to a 384-well Opti-plate (PerkinElmer) and 5 μL acceptor mix is added. After a 2-hour incubation in the dark, 5 μL donor mix is added, plate is sealed, and incubated 2 hours at room temperature. Signal is read on an Envision plate reader (PerkinElmer) using standard AlphaLISA settings. Analysis of raw data is carried out in Excel (Microsoft) and Prism (GraphPad). Signal is plotted vs. the decadal logarithm of compound concentration, and IC50 is determined by fitting a 4-parameter sigmoidal concentration response model.
In other experiments, cellular pERK is determined by In-Cell Western. Following compound treatment, cells are washed twice with 200 μL tris buffered saline (TBS) and fixed for 15 minutes with 150 μL 4% paraformaldehyde in TBS. Fixed cells are washed 4 times for 5 minutes with TBS containing 0.1% Triton X-100 (TBST) and then blocked with 100 μL Odyssey blocking buffer (LI-COR) for 60 minutes at room temperature. Primary antibody (PERK, CST-4370, Cell Signaling Technology) is diluted 1:200 in blocking buffer, and 50 μL is added to each well and incubated overnight at 4° C. Cells are washed 4 times for 5 minutes with TBST. Secondary antibody (IR-800CW rabbit, LI-COR, diluted 1:800) and DNA stain DRAQ5 (LI-COR, diluted 1:2000) are added and incubated 1-2 hours at room temperature. Cells are washed 4 times for 5 minutes with TBST. Plates are scanned on a Li—COR Odyssey CLx Imager. Analysis of raw data is carried out in Excel (Microsoft) and Prism (GraphPad). Signal is plotted vs. the decadal logarithm of compound concentration, and IC50 is determined by fitting a 4-parameter sigmoidal concentration response model.

SMILES: CO[C@@H](C)c1ncc(C2CN(C3CC3)C2)cc1-c1c2c3cc(ccc3n1CCOC1CCOCC1)-c1csc(n1)[C@@H](N1CC3(COC3)C1)[C@H](NC(=O)[C@@H]1OC[C@@H]1C)C(=O)N1CCC[C@H](N1)C(=O)OCC(C)(C)C2
ring closure, yield after HPLC ([1]; from CO[C@@H](C)c1ncc(C2CN(C3CC3)C2)cc1-c1c(CC(C)(C)CO)c2cc(-c3csc([C@H]([C@H](NC(=O)[C@@H]4OC[C@@H]4C)C(=O)N4CCC[C@@H](C(=O)O)N4)N4CC5(COC5)C4)n3)ccc2n1CCOC1CCOCC1, MeCN, 1.44 mM, 35.0 °C, 3.0 h): 20%

SMILES: CO[C@@H](C)c1ncccc1-c1c2c3cc(ccc3n1C1CC(C#N)C1)-c1coc(n1)[C@@H](N1CC3(COC3)C1)[C@H](NC(=O)OC(C)(C)C)C(=O)N1CCC[C@H](N1)C(=O)OCC(C)(C)C2 (stereo partly shown)
ring closure, yield after HPLC ([1]; from CO[C@@H](C)c1ncccc1-c1c(CC(C)(C)CO)c2cc(-c3coc([C@H]([C@H](NC(=O)OC(C)(C)C)C(=O)N4CCC[C@@H](C(=O)O)N4)N4CC5(COC5)C4)n3)ccc2n1C1CC(C#N)C1, DMF, 12.5 mM, 25.0 °C, 2.0 h): 27.4%

SMILES: COC1CN([C@@H]2c3nc(cs3)-c3ccc4c(c3)c(c(-c3cccnc3[C@H](C)OC)n4C3CN(C4CC4)C3)CC(C)(C)COC(=O)[C@@H]3CCCN(N3)C(=O)[C@H]2NC(=O)OC(C)(C)C)C1
ring closure, yield after HPLC ([1]; from COC1CN([C@H](c2nc(-c3ccc4c(c3)c(CC(C)(C)CO)c(-c3cccnc3[C@H](C)OC)n4C3CN(C4CC4)C3)cs2)[C@H](NC(=O)OC(C)(C)C)C(=O)N2CCC[C@@H](C(=O)O)N2)C1, DMF, 11.2 mM, 25.0 °C, 5.0 h): 40.2%

IC50 (K-RasG12V (Capan-1)): < 650 nM
SMILES: CO[C@@H](C)c1ncccc1-c1c2c3cc(ccc3n1[C@H]1C[C@@H](C#N)C1)-c1coc(n1)[C@@H](OCc1ccccn1)[C@H](NC(=O)[C@H]1[C@H](C)[C@@H]1C)C(=O)N1N[C@H](C(=O)OCC(C)(C)C2)C2CC1C2 [Example A1174]
